According to patent publication US5478809A, “TAN-1511, its derivatives, production and use thereof” (Takeda Chemical Industries, Ltd., priority 1992, dated 1995):
*1 amine or outer side, *2 acyl side, *3 side chain or, on linkers, in order; H or OH if unused. Where a SMILES comes first, the peptide text is derived from it. [ ]: non-standard residue; d: D form. The star is where a group is joined. Dhc(Pam)2 = S-[2,3-bis(hexadecanoyloxy)-(2S)-propyl]-(R)-cysteine, CCCCCCCCCCCCCCCC(=O)OC[C@@H](CSC[C@H](N[*:1])C(=O)[*:2])OC(=O)CCCCCCCCCCCCCCC; Propyl(2R-PamO,3-PamO) = CCCCCCCCCCCCCCCC(=O)OC[C@H](C*)OC(=O)CCCCCCCCCCCCCCC; Palmitoyl = CCCCCCCCCCCCCCCC(=O)*; Myristoyl = CCCCCCCCCCCCCC(=O)*

Columns and labels:
mice = assay: acute toxicity test to mice; format: in vivo, mouse; settings: intraperitoneal administration, dose of 400 mg/kg
Procedure: No mouse administered intraperitoneally with Pam-Dhc(Pam)2 -Gly-Gly-Gly-Glu-Thr-Thr-OH (Compound 1) (SEQ ID No. 89) at a dose of 400 mg/kg was found dead.

[1] = tested on: peritoneal cavity cells of mice; assay: number of peritoneal cavity cells in cyclophosphamide-treated mice (Experimental Example 2); format: in vivo, BALB/c mouse; settings: cyclophosphamide singly, 250 mg/kg i.p.; saline/2% gum arabic mice = 100%
Procedure: (§1) A BALB/c mouse was injected intraperitoneally with cyclophosphamide dissolved in physiological saline solution at a dose of 250 mg/kg. From the next day, the animal was administered intraperitoneally for 3 consecutive days with TAN-1511 complex suspended in physiological saline solution containing 2% gum arabic at a dose of 2 mg/kg/day. On the day following completion of the administration, number of trypan blue chromophobic cells of spleen and peritoneal cavity was counted.

spleen cells of mice [2] = assay: number of spleen cells in cyclophosphamide-treated mice (Experimental Example 4); format: in vivo, BALB/c mouse; settings: cyclophosphamide singly, 200 mg/kg i.p.; saline/2% gum arabic mouse = 100%
Procedure: as §1, with “200” for “250”, “day after next,” for “next day,”, “4” for “3”, “the test compound” for “TAN-1511 complex”, “arabic.” for “arabic at a dose of 2 mg/kg/day.”, “spleen” for “spleen and peritoneal cavity”

spleen cells of mice [3] = assay: number of spleen cells in cyclophosphamide-treated mice (Experimental Example 2); format: in vivo, BALB/c mouse; settings: cyclophosphamide singly, 250 mg/kg i.p.; saline/2% gum arabic mice = 100%
Procedure: as §1

[4] = tested on: leukocytes of peripheral blood; assay: enhancing the number of leukocytes in cyclophosphamide-treated mice; format: in vivo, CDF1/Crj mice; settings: cyclophosphamide 150 mg/kg orally, then 5% glucose s.c. for 5 days; mice without cyclophosphamide = 100%
Procedure: Six week old female CDF1/Crj mice (5animals/group) were subjected to the experiment. […] From the next day, each animal was administered subcutaneously with the compound suspended in 5% glucose at the following dosages for five days once a day. On the next day after completion of the administration, about 100 μl of peripheral blood was collected from orbital vein using an EDTA-treated glass capillary. Then, the number of leukocytes was counted using a automatic cell analyzer (Sysmex K-2000, Toa Medical Electronics, Japan)

Compound | mice found dead / killed (mice) | Number of peritoneal cavity cells (%) [1] | Number of abdominal cavity cells (%) (spleen cells of mice [2]) | Number of spleen cells (%) (spleen cells of mice [3]) | average value and standard deviation of leukocyte numbers [4]
Pam-Dhc(Pam)2 -Gly-Gly-Gly-Glu-Thr-Thr-OH (Palmitoyl-[Dhc(Pam)2]GGGETT-OH; SMILES CCCCCCCCCCCCCCCC(=O)N[C@@H](CSC[C@H](COC(=O)CCCCCCCCCCCCCCC)OC(=O)CCCCCCCCCCCCCCC)C(=O)NCC(=O)NCC(=O)NCC(=O)N[C@@H](CCC(=O)O)C(=O)N[C@H](C(=O)N[C@H](C(=O)O)[C@@H](C)O)[C@@H](C)O) [Compound 1] | No mouse | – | – | – | –
CCCCCCCCCCCCCCCC(=O)OC[C@H](CSC[C@H](NC(=O)CCCCCCCCCCCCC)C(=O)NCC(=O)NCC(=O)NCC(=O)N[C@@H](CCC(=O)O)C(=O)N[C@H](C(=O)N[C@H](C(=O)O)[C@@H](C)O)[C@@H](C)O)OC(=O)CCCCCCCCCCCCCCC [Compound 9, (2R,6R)-2-Myr-amino-6,7-bis(PamO)-4-THT-Gly-Gly-Gly-Glu-Thr-Thr-OH] (Myristoyl-C(Propyl(2R-PamO,3-PamO))GGGETT-OH) | No mouse was killed | – | – | – | –
O=P1(N(CCCl)CCCl)NCCCO1 (stereo not drawn) [Cyclophosphamide] | – | 27.7% | 33.4% | 11.8% | 41±11%
